Publication PMC10539439 (Pharmacological Reports, 2023)
Several values for one entry are separate records, joined by “and”; a condition that tells them apart may be missing. Identical values can stand only once.

Experiments:
[1] = Core body temperature of obese rats (implanted logger); format: in vivo, rat; settings: for temperature after administration: hight-fat diet, 5mg/kg, individual rats 1-6
Experimental: Animals with induced obesity (two more groups) were subcutaneously implanted with a DST micro-HRT heart rate logger (Star-Oddi, Island), which simultaneously measured long-term core temperature. Under general anesthesia (thiopental, 70 mg/kg, ip), the loggers were inserted under the skin in the groin area and sutured with a surgical thread. Forty-eight hours later, the baseline temperature was measured, and at 9:30 AM, 4-OH-Guanabenz was administered ip at a dose of 5 mg/kg b.w. The first measurement was recorded 30 min after the administration of the test compound, and then, the temperature was recorded every hour. After 24 h, the loggers were removed, the temperature data were read, and Mercury software (Star-Oddi Mercury Data Logger PC Software, Iceland) was used to collect and analyze the information obtained. Using this technology, measurements are made without the direct intervention of the researcher; therefore, there is no disturbance in the readings evoked by stress in the animals.

[2] = Obesity induced with a high-fat diet: body weight; format: in vivo, rat; settings: for effect on body weight (in words): vs obese control; for body weight of rat in g in particular day / change of body weight: hight-fat diet; for change of body weight: individual rats
Experimental: The experiments were carried out on male Wistar rats ([…]). Initial body weight was: 140–160 g obesity model or 190–220 g rats in which the obesity model was not induced. The animals were housed in pairs in plastic cages in constant temperature facilities exposed to a light–dark cycle; water and food were available ad libitum. The control and experimental groups consisted of six-to-eight animals each. All experiments were carried out according to the guidelines of the Jagiellonian University Animal Use and Care Committee and were approved for realization (Permissions No. 54/2012 and No. 128/2017).
Male Wistar rats were housed in pairs and fed a high-fat diet consisting of a 40% fat blend (Labofeed B with 40% lard, Morawski, Manufacturer Feed, Poland) for 14 weeks, with water available ad libitum. Control rats were fed a standard diet (Labofeed B, Morawski Manufacturer Feed, Poland). After 10 weeks, rats with obesity-induced via their diet were randomly divided into three equal groups that had the same mean body weight and were treated ip with test compounds at doses of 2 or 5 mg/kg b.w./day (high-fat diet + 4OHGuanabenz) or control group: vehicle–water 0.3 ml/kg (high-fat diet + vehicle = obesity control group) once a day in the morning between 9:00 AM and 10:00 AM for 25 days. Control rats were maintained on a standard diet, with ip administration of vehicle – water (standard diet + vehicle = control group).
The high-fat diet contained 550 kcal and the standard diet 280 kcal per 100 g.

SMILES: Cl.N=C(N)NN=Cc1c(Cl)cc(O)cc1Cl [4-OH-Guanabenz, 2-[(2,6-Dichloro-4-hydroxyphenyl)methylene]hydrazinecarboximidamide Hydrochloride]
- temperature after administration ([1]; hour 1): 37.56 ⚬C and 36.75 ⚬C and 37.32 ⚬C and 36.19 ⚬C and 36.67 ⚬C and 36.9 ⚬C
- temperature after administration ([1]; hour 2): 36.89 ⚬C and 36.98 ⚬C and 36.3 ⚬C (2×) and 37.12 ⚬C and 35.67 ⚬C
- temperature after administration ([1]; hour 3): 36.21 ⚬C and 36.64 ⚬C and 36.08 ⚬C and 35.74 ⚬C and 36.23 ⚬C and 35.01 ⚬C
- temperature after administration ([1]; hour 4): 36.66 ⚬C and 36.98 ⚬C and 36.64 ⚬C and 35.41 ⚬C and 35.89 ⚬C and 36.48 ⚬C
- temperature after administration ([1]; hour 5): 37 ⚬C and 36.98 ⚬C and 36.95 ⚬C and 36.08 ⚬C and 36.45 ⚬C and 36.9 ⚬C
- temperature after administration ([1]; hour 6): 37.34 ⚬C and 36.75 ⚬C and 36.87 ⚬C and 36.44 ⚬C and 36.59 ⚬C and 36.9 ⚬C
- temperature after administration ([1]; hour 7): 36.77 ⚬C and 36.64 ⚬C (2×) and 36.19 ⚬C and 36.78 ⚬C and 36.45 ⚬C
- temperature after administration ([1]; hour 8): 37 ⚬C and 36.53 ⚬C and 36.75 ⚬C and 36.42 ⚬C and 36.67 ⚬C and 36.78 ⚬C
- temperature after administration ([1]; hour 9): 37.34 ⚬C and 36.42 ⚬C and 36.64 ⚬C and 36.98 ⚬C and 36.78 ⚬C and 36.67 ⚬C
- temperature after administration ([1]; hour 10): 37.34 ⚬C and 36.5 ⚬C and 36.87 ⚬C and 36.53 ⚬C and 36.67 ⚬C and 37.01 ⚬C
- temperature after administration ([1]; hour 11): 37 ⚬C and 36.64 ⚬C and 36.08 ⚬C and 37.09 ⚬C and 36.67 ⚬C and 36.56 ⚬C
- temperature after administration ([1]; hour 12): 37 ⚬C and 36.53 ⚬C (2×) and 36.87 ⚬C and 36.56 ⚬C and 37.35 ⚬C
- temperature after administration ([1]; hour 13): 37.22 ⚬C and 37.09 ⚬C and 36.75 ⚬C and 36.64 ⚬C and 36.56 ⚬C and 36.67 ⚬C
- temperature after administration ([1]; hour 14): 37.34 ⚬C and 36.42 ⚬C (3×) and 36.78 ⚬C and 37.12 ⚬C
- temperature after administration ([1]; hour 15): 37.34 ⚬C and 36.53 ⚬C (2×) and 36.08 ⚬C and 36.56 ⚬C and 36.45 ⚬C
- temperature after administration ([1]; hour 16): 37.34 ⚬C and 37.09 ⚬C and 36.64 ⚬C and 35.97 ⚬C and 36.34 ⚬C and 36.56 ⚬C
- temperature after administration ([1]; hour 17): 37 ⚬C and 37.09 ⚬C and 36.53 ⚬C and 36.67 ⚬C and 36.45 ⚬C and 37.23 ⚬C
- temperature after administration ([1]; hour 18): 37.45 ⚬C and 36.53 ⚬C and 36.3 ⚬C and 37.21 ⚬C and 36.56 ⚬C and 36.34 ⚬C
- temperature after administration ([1]; hour 19): 36.6 ⚬C and 36.75 ⚬C and 36.53 ⚬C and 36.3 ⚬C and 36.67 ⚬C (2×)
- temperature after administration ([1]; hour 20): 37.22 ⚬C and 37.32 ⚬C and 36.19 ⚬C and 35.97 ⚬C and 36.56 ⚬C and 36.23 ⚬C
- temperature after administration ([1]; hour 21): 37.45 ⚬C and 36.08 ⚬C (2×) and 36.19 ⚬C and 36.78 ⚬C and 36.12 ⚬C
- temperature after administration ([1]; hour 22): 36.77 ⚬C and 36.3 ⚬C and 35.86 ⚬C and 36.08 ⚬C and 36.45 ⚬C and 36.12 ⚬C
- temperature after administration ([1]; hour 23): 36.89 ⚬C and 36.3 ⚬C and 36.19 ⚬C and 36.53 ⚬C and 36.34 ⚬C and 36.23 ⚬C
- temperature after administration ([1]; hour 24): 36.66 ⚬C and 36.64 ⚬C and 36.3 ⚬C and 36.19 ⚬C and 36.78 ⚬C and 35.89 ⚬C
- effect on core temperature (in words) ([1]; obese rats, 5 mg/kg b.w. ip, vs obese control): No significant effects on core temperature
- effect on body weight (in words) ([2]; high-fat diet rats, 2 mg/kg b.w. ip, 25 days): did not cause weight loss, but significantly reduced weight gain
- weight loss compared to the baseline weight before treatment ([2]; high-fat diet rats, 5 mg/kg b.w. ip once a day, 25 days): approximately 14.8%
- effect on body weight (in words) ([2]; high-fat diet rats, 5 mg/kg b.w. ip, 25 days): significant decrease in body weight
- body weight of rat in g in particular day ([2]; 2mg/kg, day 1, individual rats, 2 mg/kg): 405 g (3×) and 415 g and 410 g (2×)
- body weight of rat in g in particular day ([2]; 2mg/kg, day 3, individual rats, 2 mg/kg): 405 g (2×) and 410 g and 414 g (2×) and 406 g
- body weight of rat in g in particular day ([2]; 2mg/kg, day 5, individual rats, 2 mg/kg): 409 g (2×) and 411 g and 413 g (2×) and 415 g
- body weight of rat in g in particular day ([2]; 2mg/kg, day 7, individual rats, 2 mg/kg): 408 g (2×) and 414 g and 412 g (2×) and 416 g
- body weight of rat in g in particular day ([2]; 2mg/kg, day 9, individual rats, 2 mg/kg): 406 g (2×) and 414 g and 415 g (2×) and 422 g
- body weight of rat in g in particular day ([2]; 2mg/kg, day 11, individual rats, 2 mg/kg): 412 g (2×) and 413 g and 417 g (2×) and 423 g
- body weight of rat in g in particular day ([2]; 2mg/kg, day 13, individual rats, 2 mg/kg): 409 g (2×) and 418 g and 414 g (2×) and 425 g
- body weight of rat in g in particular day ([2]; 2mg/kg, day 15, individual rats, 2 mg/kg): 410 g (2×) and 422 g and 401 g (2×) and 428 g
- body weight of rat in g in particular day ([2]; 2mg/kg, day 17, individual rats, 2 mg/kg): 412 g (2×) and 422 g and 403 g (2×) and 430 g
- body weight of rat in g in particular day ([2]; 2mg/kg, day 19, individual rats, 2 mg/kg): 412 g (2×) and 424 g and 407 g (2×) and 433 g
- body weight of rat in g in particular day ([2]; 2mg/kg, day 21, individual rats, 2 mg/kg): 415 g (2×) and 429 g and 412 g (2×) and 434 g
- body weight of rat in g in particular day ([2]; 2mg/kg, day 23, individual rats, 2 mg/kg): 408 g (2×) and 434 g and 415 g (2×) and 435 g
- body weight of rat in g in particular day ([2]; 2mg/kg, day 25, individual rats, 2 mg/kg): 405 g (2×) and 432 g and 415 g (2×) and 439 g
- change of body weight ([2]; 2mg/kg): 34 g/25days and 5 g/25days and 0 g/25days and 17 g/25days
- body weight of rat in g in particular day ([2]; 5mg/kg, day 1, individual rats, 5 mg/kg): 378 g and 415 g and 418 g and 409 g and 381 g and 457 g
- body weight of rat in g in particular day ([2]; 5mg/kg, day 3, individual rats, 5 mg/kg): 367 g and 412 g and 410 g and 387 g and 366 g and 443 g
- body weight of rat in g in particular day ([2]; 5mg/kg, day 5, individual rats, 5 mg/kg): 358 g and 396 g and 405 g and 374 g and 360 g and 427 g
- body weight of rat in g in particular day ([2]; 5mg/kg, day 7, individual rats, 5 mg/kg): 344 g and 387 g and 385 g and 364 g and 347 g and 411 g
- body weight of rat in g in particular day ([2]; 5mg/kg, day 9, individual rats, 5 mg/kg): 339 g and 377 g and 376 g and 357 g and 340 g and 394 g
- body weight of rat in g in particular day ([2]; 5mg/kg, day 11, individual rats, 5 mg/kg): 335 g and 372 g and 373 g and 350 g and 340 g and 388 g
- body weight of rat in g in particular day ([2]; 5mg/kg, day 13, individual rats, 5 mg/kg): 326 g and 364 g and 373 g and 348 g and 336 g and 386 g
- body weight of rat in g in particular day ([2]; 5mg/kg, day 15, individual rats, 5 mg/kg): 327 g and 363 g and 377 g and 350 g and 334 g and 384 g
- body weight of rat in g in particular day ([2]; 5mg/kg, day 17, individual rats, 5 mg/kg): 326 g and 362 g and 384 g and 348 g and 331 g and 386 g
- body weight of rat in g in particular day ([2]; 5mg/kg, day 19, individual rats, 5 mg/kg): 327 g and 356 g and 377 g (2×) and 349 g and 333 g
- body weight of rat in g in particular day ([2]; 5mg/kg, day 21, individual rats, 5 mg/kg): 314 g and 353 g and 370 g and 334 g and 328 g and 367 g
- body weight of rat in g in particular day ([2]; 5mg/kg, day 23, individual rats, 5 mg/kg): 310 g and 355 g and 373 g and 342 g and 328 g and 365 g
- body weight of rat in g in particular day ([2]; 5mg/kg, day 25, individual rats, 5 mg/kg): 315 g and 357 g and 378 g and 348 g and 325 g and 370 g
- change of body weight ([2]; 5mg/kg): -56 g/25days and -87 g/25days and -63 g/25days and -58 g/25days and -40 g/25days and -61 g/25days
